In paper PMC8402075, “Synthesis and Antiplasmodial Activity of Bisindolylcyclobutenediones” (Molecules, 2021):
Like-named read-outs stand apart in the source and are kept apart here.

Tests used:
[1] = test system: P. falciparum (NF54-luc strain) erythrocytic stages; test: Luciferase-based viability screening for antiplasmodial activity; format: cell-based, Plasmodium falciparum; conditions: for inhibition at 3 µM: read-out: Inhibition at 3 µM [%]
Method: All synthesized new bisindolylcyclobutenediones 2a–2ar and the related bisindolylmaleimide 8 [37] were screened for inhibition of erythrocytic stages of Plasmodium falciparum employing a bioluminescence-based viability assay on transgenic parasites that constitutively express luciferase (PfNF54-luc). Initially, the compounds were evaluated in single-dose test runs (3 µM). If >20% viability inhibition was observed, dose-response curves were generated and IC50 values were calculated (Table 1). […] The bisindolylmaleimide 8 [37] inhibited the parasites in a single-digit micromolar concentration, similar to many of the bisindolylcyclobutenediones in the study. Because the bisindolylcyclobutenediones 2 display a higher degree of structural novelty, only this compound class was further pursued for its antiplasmodial activity. […] These structural features were considered unfavorable for orientations as illustrated in Figure 2 with 2a and Pfmap-2, PfPK5, PfCDPK2, Pflammer, and PfPK7, respectively. However, a structure generated for 2a in PfGSK-3 in which the indole units are oriented perpendicular to each other (Figure 2a) was considered compatible with the indicated substitution pattern. Consequently, the potent antiplasmodial derivatives 2k, 2ad, and 2ae were tested in a kinase Glo assay for inhibition of recombinant PfGSK-3. […] For the compounds with particularly potent antiplasmodial activity, cytotoxicity was also determined using the human cell line THP-1 to assess selectivity with respect to parasite cells (Table 2).
Screening for the antiplasmodial activity of test compounds was performed by luciferase-based viability assays as reported previously. In brief, asexual erythrocytic stages of transgenic NF54-luc P. falciparum were cultured as described elsewhere. Parasite cultures with parasitaemia of 0.5–1% were incubated in the presence of 3 µM test compounds for 48 h. After the subsequent addition of Bright-Glo substrate solution (Promega, Madison, WI), the resulting luminescence was measured. Untreated cultures (0.01% DMSO) were used as negative controls. Experiments were performed in triplicate and were repeated as a whole at least twice. Blasticidin (Sigma-Aldrich, St. Louis, MO, USA) was included as a positive control.

human THP-1 cell line = test: Cytotoxicity assay on human THP-1 cell line (Alamar Blue); format: cell-based; conditions: for Selectivity Index (SI) = IC50, THP-1/IC50, Pf: THP-1 versus P. falciparum NF54-luc; for IC50: human THP-1 cell line, 48 h, Alamar Blue
Method: The cytotoxicity of selected antiplasmodial bisindolylcyclobutenediones was determined against THP-1 cells following a protocol described previously. In brief, THP-1 cells were incubated with test compounds in serial compound dilutions in the presence of 0.01% DMSO at 37 °C. After 48 h, Alamar Blue was added, and after 4 h the fluorescence was read (λex = 544 nm, λem = 590 nm) using a microplate reader. THP-1 cells in wells containing medium plus 0.01% DMSO served as negative controls. Experiments were performed in triplicate and were repeated as a whole at least twice.

[2] = Plasmodium falciparum, NF54, 48 h, read-out: IC50 [µM], concentration for 50% inhibition of P. falciparum (NF54-luc strain) erythrocytic stages
[3] = Plasmodium falciparum, NF54, 48 h
[4] = Plasmodium falciparum, NF54, read-out: IC50 P. falciparum (quoted in the discussion)
[5] = Plasmodium falciparum, NF54, read-out: IC50, Pf [µM]

Row | SMILES | IC50 [1, 2] [µM] | inhibition at 3 µM [1, 3] [%] | further results
1 | O=c1c(-c2c[nH]c3ccccc23)c(-c2c[nH]c3ccccc23)c1=O [2a, 3,4-Bis(1H-indol-3-yl)cyclobut-3-ene-1,2-dione] | 8.33 |  | 
2 | COc1ccc2[nH]cc(-c3c(-c4c[nH]c5ccc(F)cc45)c(=O)c3=O)c2c1 [2ab, 3-(5-Fluoro-1H-indol-3-yl)-4-(5-methoxy-1H-indol-3-yl)cyclobut-3-ene-1,2-dione] |  | 19.2 ± 3.1 | 
3 | COc1ccc2[nH]cc(-c3c(-c4c[nH]c5ccc(Cl)cc45)c(=O)c3=O)c2c1 [2ac, 3-(5-Chloro-1H-indol-3-yl)-4-(5-methoxy-1H-indol-3-yl)cyclobut-3-ene-1,2-dione] | 1.52 |  | 
4 | COc1ccc2[nH]cc(-c3c(-c4cn(C)c5ccc(Br)cc45)c(=O)c3=O)c2c1 [2ag, 3-(5-Bromo-1-methyl-1H-indol-3-yl)-4-(5-methoxy-1H-indol-3-yl)cyclobut-3-ene-1,2-dione] |  | -0.06 ± 2.43 | IC50 [1, 4]: > 10 µM
5 | COc1ccc2[nH]cc(-c3c(-c4c[nH]c5ccc(C#N)cc45)c(=O)c3=O)c2c1 [2ah, 3-[2-(5-Methoxy-1H-indol-3-yl)-3,4-dioxocyclobut-1-en-1-yl]-1H-indole-5-carbonitrile] | 6.92 |  | 
6 | COc1ccc2[nH]cc(-c3c(-c4c[nH]c5c(Cl)cccc45)c(=O)c3=O)c2c1 [2ai, 3-(7-Chloro-1H-indol-3-yl)-4-(5-methoxy-1H-indol-3-yl)cyclobut-3-ene-1,2-dione] | 0.691 | 84.5 ± 1 | IC50 [1, 5]: 0.69 µM; Selectivity Index (SI) = IC50, THP-1/IC50, Pf (human THP-1 cell line): 259; IC50 (human THP-1 cell line): 179000 nM
7 | COc1ccc2[nH]cc(-c3c(-c4c[nH]c5c(Br)cccc45)c(=O)c3=O)c2c1 [2aj, 3-(7-Bromo-1H-indol-3-yl)-4-(5-methoxy-1H-indol-3-yl)cyclobut-3-ene-1,2-dione] | 0.296 | 99.5 ± 0.4 | IC50 [1, 5]: 0.3 µM; Selectivity Index (SI) = IC50, THP-1/IC50, Pf (human THP-1 cell line): 4.7; IC50 (human THP-1 cell line): 1420 nM
8 | COc1ccc2[nH]cc(-c3c(-c4c[nH]c5c(I)cccc45)c(=O)c3=O)c2c1 [2ak, 3-(7-Iodo-1H-indol-3-yl)-4-(5-methoxy-1H-indol-3-yl)cyclobut-3-ene-1,2-dione] | 0.116 | 98.8 ± 1.2 | IC50 [1, 5]: 0.12 µM; Selectivity Index (SI) = IC50, THP-1/IC50, Pf (human THP-1 cell line): 7.0; IC50 (human THP-1 cell line): 840 nM
9 | CCc1cccc2c(-c3c(-c4c[nH]c5ccc(OC)cc45)c(=O)c3=O)c[nH]c12 [2al, 3-(7-Ethyl-1H-indol-3-yl)-4-(5-methoxy-1H-indol-3-yl)cyclobut-3-ene-1,2-dione] | 0.511 | 87 ± 0.5 | IC50 [1, 5]: 0.51 µM; Selectivity Index (SI) = IC50, THP-1/IC50, Pf (human THP-1 cell line): 1.4; IC50 (human THP-1 cell line): 700 nM
10 | COc1ccc2[nH]cc(-c3c(-c4c[nH]c5cc(Br)ccc45)c(=O)c3=O)c2c1 [2am, 3-(6-Bromo-1H-indol-3-yl)-4-(5-methoxy-1H-indol-3-yl)cyclobut-3-ene-1,2-dione] |  | 9.55 ± 5.8 | 
11 | COc1ccc2[nH]cc(-c3c(-c4c[nH]c5cccc(Br)c45)c(=O)c3=O)c2c1 [2an, 3-(4-Bromo-1H-indol-3-yl)-4-(5-methoxy-1H-indol-3-yl)cyclobut-3-en-1,2-dione] |  | 25.7 ± 2.7 | 
12 | COc1ccc2c(c1)c(-c1c(-c3c[nH]c4ccc(Br)cc34)c(=O)c1=O)cn2C [2ao, 3-(5-Bromo-1H-indol-3-yl)-4-(5-methoxy-1-methyl-1H-indol-3-yl)cyclobut-3-en-1,2-dione] | 0.504 | 95.4 ± 1.1 | IC50 [1, 5]: 0.5 µM; IC50 [1, 4]: 0.54 µM; Selectivity Index (SI) = IC50, THP-1/IC50, Pf (human THP-1 cell line): 6.3; IC50 (human THP-1 cell line): 3130 nM
13 | O=c1c(-c2c[nH]c3ccc(O)cc23)c(-c2c[nH]c3ccc(Br)cc23)c1=O [2ap, 3-(5-Bromo-1H-indol-3-yl)-4-(5-hydroxy-1H-indol-3-yl)cyclobut-3-ene-1,2-dione] |  | 2.52 ± 1.4 | 
14 | O=c1c(-c2c[nH]c3ccc(I)cc23)c(-c2c[nH]c3ccc(I)cc23)c1=O [2aq, 3,4-Bis(5-iodo-1H-indol-3-yl)cyclobut-3-ene-1,2-dione] |  | 1.79 ± 1.8 | 
15 | O=c1c(-c2c[nH]c3ccccc23)c(-c2c[nH]c3ccc(Br)cc23)c1=O [2b, 3-(5-Bromo-1H-indol-3-yl)-4-(1H-indol-3-yl)cyclobut-3-ene-1,2-dione] | 3.02 |  | IC50 [1, 5]: 3.02 µM; IC50 [1, 4]: 3 µM; Selectivity Index (SI) = IC50, THP-1/IC50, Pf (human THP-1 cell line): 7.6; IC50 (human THP-1 cell line): 23000 nM
16 | O=c1c(-c2c[nH]c3ccccc23)c(-c2c[nH]c3ccc(Cl)cc23)c1=O [2c, 3-(5-Chloro-1H-indol-3-yl)-4-(1H-indol-3-yl)cyclobut-3-ene-1,2-dione] | 4.23 |  | 

Row | SMILES | IC50 [1, 2] [µM] | inhibition at 3 µM [1, 3] [%] | further results
17 | O=c1c(-c2c[nH]c3ccccc23)c(-c2c[nH]c3ccc(OCc4ccccc4)cc23)c1=O [2e, 3-[5-(Benzyloxy)-1H-indol-3-yl]-4-(1H-indol-3-yl)cyclobut-3-ene-1,2-dione] |  | -4.43 ± 10.6 | 
18 | N#Cc1ccc2[nH]cc(-c3c(-c4c[nH]c5ccccc45)c(=O)c3=O)c2c1 [2f, 3-[2-(1H-Indol-3-yl)-3,4-dioxocyclobut-1-ene-1-yl]-1H-indol-5-carbonitrile] | 6.72 |  | 
19 | Cc1[nH]c2ccccc2c1-c1c(-c2c[nH]c3ccccc23)c(=O)c1=O [2g, 3-(1H-Indol-3-yl)-4-(2-methyl-1H-indol-3-yl)cyclobut-3-ene-1,2-dione] | > 30 |  | 
20 | O=c1c(-c2c[nH]c3ccccc23)c(-c2c(-c3ccccc3)[nH]c3ccccc23)c1=O [2h, 3-(1H-Indol-3-yl)-4-(2-phenyl-1H-indol-3-yl)cyclobut-3-ene-1,2-dione] | 6.38 |  | IC50 [1, 5]: 6.38 µM; Selectivity Index (SI) = IC50, THP-1/IC50, Pf (human THP-1 cell line): 1.0; IC50 (human THP-1 cell line): 6370 nM
21 | Cn1cc(-c2c(-c3cn(C)c4ccccc34)c(=O)c2=O)c2ccccc21 [2i, 3,4-Bis(1-methyl-1H-indol-3-yl)cyclobut-3-ene-1,2-dione] |  | 3.53 ± 1.7 | 
22 | O=c1c(-c2c(-c3ccccc3)[nH]c3ccccc23)c(-c2c(-c3ccccc3)[nH]c3ccccc23)c1=O [2m, 3,4-Bis(2-phenyl-1H-indol-3-yl)cyclobut-3-ene-1,2-dione] | 2.47 |  | 
23 | O=c1c(-c2c[nH]c3ccc(Br)cc23)c(-c2c[nH]c3ccc(Br)cc23)c1=O [2o, 3,4-Bis(5-bromo-1H-indol-3-yl)cyclobut-3-ene-1,2-dione] | > 30 |  | 
24 | N#Cc1ccc2[nH]cc(-c3c(-c4c[nH]c5ccc(C#N)cc45)c(=O)c3=O)c2c1 [2p, 3,3’-(3,4-Dioxocyclobut-1-ene-1,2-diyl)bis(1H-indole-5-carbonitrile)] |  | -3.1 ± 0.9 | 
25 | Cn1cc(-c2c(-c3c[nH]c4ccccc34)c(=O)c2=O)c2ccccc21 [2q, 3-(1H-Indol-3-yl)-4-(1-methyl-1H-indol-3-yl)cyclobut-3-ene-1,2-dione] | 2.97 |  | IC50 [1, 5]: 2.97 µM; Selectivity Index (SI) = IC50, THP-1/IC50, Pf (human THP-1 cell line): 4.7; IC50 (human THP-1 cell line): 14000 nM
26 | Cn1cc(-c2c(-c3c[nH]c4ccc(Br)cc34)c(=O)c2=O)c2ccccc21 [2t, 3-(5-Bromo-1H-indol-3-yl)-4-(1-methyl-1H-indol-3-yl)cyclobut-3-ene-1,2-dione] |  | 1.38 ± 3.3 | 
27 | COc1ccc2[nH]cc(-c3c(-c4c(C)[nH]c5ccccc45)c(=O)c3=O)c2c1 [2v, 3-(5-Methoxy-1H-indol-3-yl)-4-(2-methyl-1H-indol-3-yl)cyclobut-3-ene-1,2-dione] | 10 |  | 
28 | Cc1[nH]c2ccccc2c1-c1c(-c2c(-c3ccccc3)[nH]c3ccccc23)c(=O)c1=O [2w, 3-(2-Methyl-1H-indol-3-yl)-4-(2-phenyl-1H-indol-3-yl)cyclobut-3-ene-1,2-dione] | 9.26 |  | 
29 | Cc1[nH]c2ccccc2c1-c1c(-c2c[nH]c3ccc(Br)cc23)c(=O)c1=O [2x, 3-(5-Bromo-1H-indol-3-yl)-4-(2-methyl-1H-indol-3-yl)cyclobut-3-ene-1,2-dione] | > 30 |  | 
30 | CN(CC[C@H](N)CC(=O)N[C@H]1C=C[C@H](n2ccc(N)nc2=O)O[C@@H]1C(=O)O)C(=N)N [BSD, Blasticidin, reference compound] |  |  | Inhibition at 3 µM [%] ([1]; 3 µM test compound, 48 h, P. falciparum NF54-luc erythrocytic stages): 97.6 ± 0.5%; IC50 ([1]; Table 1, 48 h incubation, luminescence viability readout, read-out: IC50 [µM], concentration for 50% inhibition of P. falciparum (NF54-luc strain) erythrocytic stages): 0.288 µM
31 | CN1C(=O)C(c2c[nH]c3ccccc23)=C(c2c[nH]c3ccccc23)C1=O [compound 8, reference compound] | 4 | 34.6 ± 0.8 | 
